Results from ChEMBL document CHEMBL1142603, “Manzamine B and E and ircinal A related alkaloids from an Indonesian Acanthostrongylophora sponge and their activity against infectious, tropical parasitic, and Alzheimer's diseases” (J Nat Prod, 2006).
≈ marks a conversion by molar mass, not a printed value. Calls of active or inactive are those of the source. The calls are words filed in the database; no cut-off is given here.

Assays:
[1] = system: Vero; experiment: Cytotoxicity against african green monkey Vero cells at 4.76 ug/mL by neutral red assay; format: cell-based; conditions: chlorocebus sabaeus
[2] = system: Plasmodium falciparum; experiment: Antimalarial activity after 72 hrs against chloroquine-resistant Plasmodium falciparum W2 in erythrocytes at […] by LDH reporter assay; format: functional, organism-based
[3] = system: Cryptococcus neoformans; experiment: Antifungal activity against Cryptococcus neoformans; format: functional, organism-based
[4] = system: Plasmodium falciparum; experiment: Antimalarial activity after 72 hrs against chloroquine-sensitive Plasmodium falciparum D6 in erythrocytes at […] by LDH reporter assay; format: functional, organism-based
[5] = system: Mycobacterium intracellulare; experiment: Antibacterial activity against Mycobacterium intracellular by alamar blue assay; format: functional, organism-based
[6] = system: Leishmania donovani; experiment: Antileishmanial activity against Leishmania donovani at 40 ug/mL after 72 hrs by alamar blue assay; format: functional, organism-based
[7] = system: Staphylococcus aureus; experiment: Antibacterial activity against Staphylococcus aureus; format: functional, organism-based
[8] = target: Beta-secretase 1 (Homo sapiens) (UniProt P56817); experiment: Inhibition of human recombinant BACE1 by FRET-based assay
Chain of Beta-secretase 1 (Homo sapiens) (P56817 whole entry): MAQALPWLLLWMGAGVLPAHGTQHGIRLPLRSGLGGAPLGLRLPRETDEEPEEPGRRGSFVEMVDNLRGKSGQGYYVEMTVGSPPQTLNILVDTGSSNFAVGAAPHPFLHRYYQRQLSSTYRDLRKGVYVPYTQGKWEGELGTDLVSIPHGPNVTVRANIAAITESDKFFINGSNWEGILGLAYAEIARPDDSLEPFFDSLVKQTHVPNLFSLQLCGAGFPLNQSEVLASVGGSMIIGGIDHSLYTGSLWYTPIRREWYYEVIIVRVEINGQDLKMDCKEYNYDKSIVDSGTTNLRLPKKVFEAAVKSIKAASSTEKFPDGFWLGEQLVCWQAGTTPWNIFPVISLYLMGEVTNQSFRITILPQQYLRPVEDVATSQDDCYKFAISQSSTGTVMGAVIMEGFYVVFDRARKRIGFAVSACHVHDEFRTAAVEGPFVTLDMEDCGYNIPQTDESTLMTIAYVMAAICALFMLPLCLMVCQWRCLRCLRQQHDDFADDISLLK

[9] = system: Staphylococcus aureus; experiment: Antibacterial activity against methicillin-resistant Staphylococcus aureus; format: functional, organism-based
[10] = target: T1, Acetylcholinesterase (Bos taurus) (UniProt P23795); experiment: Inhibition of bovine AChE
T1 sequence (whole entry): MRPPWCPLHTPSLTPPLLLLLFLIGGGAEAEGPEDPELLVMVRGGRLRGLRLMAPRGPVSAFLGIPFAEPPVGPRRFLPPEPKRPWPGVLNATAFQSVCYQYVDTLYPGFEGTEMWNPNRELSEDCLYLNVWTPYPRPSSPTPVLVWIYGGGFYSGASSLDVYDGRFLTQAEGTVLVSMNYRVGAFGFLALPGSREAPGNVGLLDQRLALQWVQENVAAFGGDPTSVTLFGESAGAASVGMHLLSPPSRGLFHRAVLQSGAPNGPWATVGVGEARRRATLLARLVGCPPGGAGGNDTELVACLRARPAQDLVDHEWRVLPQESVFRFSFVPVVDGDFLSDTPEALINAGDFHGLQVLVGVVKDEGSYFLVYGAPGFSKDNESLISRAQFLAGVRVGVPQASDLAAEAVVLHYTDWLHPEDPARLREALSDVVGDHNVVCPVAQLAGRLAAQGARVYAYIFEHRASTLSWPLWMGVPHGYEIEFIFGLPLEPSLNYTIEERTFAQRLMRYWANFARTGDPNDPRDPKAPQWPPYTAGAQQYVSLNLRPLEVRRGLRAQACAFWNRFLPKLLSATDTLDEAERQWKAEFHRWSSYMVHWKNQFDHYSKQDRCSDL

[11] = system: Human immunodeficiency virus 1; experiment: Antiviral activity against HIV1 3B assessed as reverse transcriptase activity by enzyme immunoassay; format: functional, organism-based; conditions: Human immunodeficiency virus 1, 3B
[12] = target: Glycogen synthase kinase-3 beta (Homo sapiens) (UniProt P49841); experiment: Inhibition of human recombinant GSK3-beta assessed as incorporation of [33P]gammaATP into G2S peptide at 25 uM
Chain of Glycogen synthase kinase-3 beta (Homo sapiens) (P49841 whole entry, looked up): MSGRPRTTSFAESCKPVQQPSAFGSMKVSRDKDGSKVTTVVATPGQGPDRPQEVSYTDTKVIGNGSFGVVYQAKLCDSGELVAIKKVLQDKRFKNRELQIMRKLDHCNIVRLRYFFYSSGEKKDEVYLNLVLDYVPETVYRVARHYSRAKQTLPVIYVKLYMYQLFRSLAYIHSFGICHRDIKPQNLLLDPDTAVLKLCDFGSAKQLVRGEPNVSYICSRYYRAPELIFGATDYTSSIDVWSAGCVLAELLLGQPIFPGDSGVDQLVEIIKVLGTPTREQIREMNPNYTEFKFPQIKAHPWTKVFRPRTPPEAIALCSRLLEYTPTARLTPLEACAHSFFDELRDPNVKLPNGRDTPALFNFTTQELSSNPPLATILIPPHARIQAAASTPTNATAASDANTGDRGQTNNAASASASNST

[13] = system: Leishmania donovani; experiment: Antileishmanial activity against Leishmania donovani after 72 hrs by alamar blue assay; format: functional, organism-based
[14] = system: Plasmodium falciparum; experiment: Antimalarial activity after 72 hrs against chloroquine-sensitive Plasmodium falciparum D6 in erythrocytes by LDH reporter assay; format: functional, organism-based; conditions: D6, 72 h
[15] = system: Plasmodium falciparum; experiment: Antimalarial activity after 72 hrs against chloroquine-resistant Plasmodium falciparum W2 in erythrocytes by LDH reporter assay; format: functional, organism-based; conditions: W2, 72 h
[16] = system: Mycobacterium tuberculosis; experiment: Antituberculosis activity against Mycobacterium tuberculosis H37Rv after 24 hrs by alamar blue assay; format: functional
[17] = system: Vero; experiment: Cytotoxicity against african green monkey Vero cells by neutral red assay; format: cell-based; conditions: chlorocebus sabaeus

Structure (SMILES) | Activity [1] | Activity [3] | Activity [7] | Activity [8] | Activity [9] | Activity [10] | IC50 [13] [µg/mL] | IC90 [13] [µg/mL] | IC50 [14] [µg/mL] | IC50 [15] [µg/mL] | MIC [16] [µg/mL] | also measured
O=C1CCCN2[C@@H]3[C@@]45CN6CCCC/C=C\CC[C@@]3(C=C(c3nccc7c3[nH]c3ccc(O)cc37)[C@@H]4CC6)O[C@]2(CC1)C5 | Non-toxic | inactive | inactive | inactive | inactive | inactive | – | – | – | – | – | Activity [2]: inactive; Activity [4]: inactive; Activity [5]: inactive; Activity [6]: inactive
O=C1CCCN2[C@@H](CC1)C[C@]13CN4CCCC/C=C\CC[C@](O)(C=C(c5nccc6c5[nH]c5ccccc56)C1CC4)[C@H]23 (stereo partly drawn) [MANZAMINE E] | Non-toxic | inactive | inactive | inactive | inactive | inactive | 3.8 (≈ 6.73 µM) | 6.8 (≈ 12 µM) | 3.4 (≈ 6.02 µM) | 4.76 (≈ 8.43 µM) | 3.8 (≈ 6.73 µM) | IC50 [11]: 13.1 µg/mL (≈ 23.2 µM); inhibition [12]: 53.6%; IC50 [5]: 12.5 µg/mL (≈ 22.1 µM)
CO[C@H]1/C=C/O[C@@]2(C)Oc3c(C)c(O)c4c(O)c(c(/C=N/N5CCN(C)CC5)c(O)c4c3C2=O)NC(=O)/C(C)=C\C=C\[C@H](C)[C@H](O)[C@@H](C)[C@@H](O)[C@@H](C)[C@H](OC(C)=O)[C@@H]1C [RIFAMPIN] | – | – | – | – | – | – | – | – | – | – | 0.5 (≈ 0.608 µM) | –
O=C1CC[C@H]2C[C@]34CN5CCCC/C=C\CC[C@@]6(C=C(c7nccc8c7[nH]c7ccccc78)[C@@H]3CC5)O[C@H](CC1)N2[C@H]46 | Non-toxic | inactive | inactive | inactive | inactive | inactive | 18 (≈ 32 µM) | 40 (≈ 71.1 µM) | – | – | – | Activity [2]: inactive; Activity [4]: inactive; Activity [5]: inactive
O=C1CCCN2[C@H]3[C@]45CN6CCCC/C=C\CC[C@]3(C=C(c3nccc7c3[nH]c3c(O)cccc37)[C@H]4CC6)O[C@]2(CC1)C5 | Non-toxic | inactive | inactive | inactive | inactive | inactive | – | – | 0.84 (≈ 1.45 µM) | 1.1 (≈ 1.9 µM) | 12.5 (≈ 21.6 µM) | IC50 [11]: 14.9 µg/mL (≈ 25.7 µM); Activity [5]: inactive; Activity [6]: inactive
C1=C(c2[nH]ccc3c4ccccc4nc2-3)[C@@H]2CCN3CCCC/C=C\CC[C@]14O[C@@H]1CCC/C=C\[C@H]5C[C@@]2(C3)[C@H]4N51 [12,28-OXAMANZAMINE A] | Non-toxic | inactive | inactive | inactive | inactive | inactive | 7.8 (≈ 14.3 µM) | 50 (≈ 91.4 µM) | – | – | – | IC50 [11]: 22.2 µg/mL (≈ 40.6 µM); Activity [2]: inactive; Activity [4]: inactive; Activity [5]: inactive
C1=C\CC[C@]23CN4CCCC/C=C\CC[C@@]5(O[C@H]5[C@@H](c5nccc6c5[nH]c5ccccc56)[C@@H]2CC4)[C@@H]3NCCCC/1 | – | – | – | inactive | – | inactive | – | – | – | – | – | –
O=CC1=C[C@@]2(O)CC/C=C\CCCCN3CC[C@@H]1[C@]1(C[C@@H]4/C=C\CCCCN4[C@H]12)C3 | – | – | – | – | – | – | – | – | – | – | – | inhibition [12]: 0%
N=C(N)c1ccc(OCCCCCOc2ccc(C(=N)N)cc2)cc1 [PENTAMIDINE] | – | – | – | – | – | – | 2.1 (≈ 6.17 µM) | 10 (≈ 29.4 µM) | – | – | – | –
O=C1CCCN2[C@@H](CC1)C[C@]13CN4CCCC/C=C\CC[C@](O)(C=C(c5nccc6c5[nH]c5ccc(O)cc56)[C@@H]1CC4)[C@H]23 | Non-toxic | – | – | inactive | – | inactive | 2.5 (≈ 4.3 µM) | 4.3 (≈ 7.4 µM) | 0.78 (≈ 1.34 µM) | 0.87 (≈ 1.5 µM) | 0.4 (≈ 0.689 µM) | IC50 [17]: 4.3 µg/mL (≈ 7.4 µM); IC50 [3]: 5.5 µg/mL (≈ 9.47 µM); IC50 [5]: 3.5 µg/mL (≈ 6.03 µM)
Oc1ccc2[nH]c3c(C4=C[C@@]5(O)CC/C=C\CCCCN6CC[C@@H]4[C@]4(C[C@@H]7/C=C\CCCCN7[C@H]45)C6)nccc3c2c1 [MANZAMINE Y] | – | inactive | – | inactive | – | inactive | 1.6 (≈ 2.83 µM) | 8 (≈ 14.2 µM) | 0.42 (≈ 0.744 µM) | 0.85 (≈ 1.51 µM) | 5.2 (≈ 9.21 µM) | IC50 [17]: 3.9 µg/mL (≈ 6.91 µM); inhibition [12]: 74.3%; IC50 [5]: 3.5 µg/mL (≈ 6.2 µM); IC50 [7]: 15 µg/mL (≈ 26.6 µM); IC50 [9]: 15 µg/mL (≈ 26.6 µM)
Oc1cccc2c3cc[nH]c(C4=C[C@]56CC/C=C\CCCCN7CC[C@@H]4[C@]4(C[C@@H]8/C=C\CCC[C@@H](O5)N8[C@H]46)C7)c-3nc12 [12,28-OXA-8-HYDROXY-MANZAMINE A] | Non-toxic | inactive | inactive | inactive | inactive | inactive | – | – | – | – | – | Activity [2]: inactive; Activity [4]: inactive; Activity [5]: inactive
O=C1CCCN2[C@@H](CC1)C[C@]13CN4CCCC/C=C\CC[C@](O)(C=C(c5nccc6c5[nH]c5c(O)cccc56)C1CC4)[C@H]23 (stereo partly drawn) [MANZAMINE F] | Non-toxic | – | inactive | inactive | inactive | inactive | 4.2 (≈ 7.23 µM) | 7 (≈ 12.1 µM) | 0.78 (≈ 1.34 µM) | 1.7 (≈ 2.93 µM) | 2.6 (≈ 4.48 µM) | IC50 [11]: 7.3 µg/mL (≈ 12.6 µM); inhibition [12]: 29.9%; IC50 [3]: 6.5 µg/mL (≈ 11.2 µM); IC50 [5]: 6.25 µg/mL (≈ 10.8 µM)
C[C@@H]1[C@H](O)[C@@H](C)/C=C/C=C/C=C/C=C/C=C/C=C/C=C/[C@H](O[C@@H]2O[C@H](C)[C@@H](O)[C@H](N)[C@@H]2O)C[C@@H]2O[C@](O)(C[C@@H](O)C[C@@H](O)[C@H](O)CC[C@@H](O)C[C@@H](O)CC(=O)O[C@H]1C)C[C@H](O)[C@H]2C(=O)O [AMPHOTERICIN B] | – | – | – | – | – | – | 0.06 (≈ 0.0649 µM) | 0.15 (≈ 0.162 µM) | – | – | – | IC50 [3]: 0.15 µg/mL (≈ 0.162 µM)
C[C@@H]1CC[C@H]2[C@@H](C)C(=O)O[C@@H]3O[C@@]4(C)CC[C@@H]1[C@]32OO4 [ARTEMISININ] | – | – | – | – | – | – | – | – | 0.01 (≈ 0.0354 µM) | 0.0063 (≈ 0.0223 µM) | – | –
O=C(O)c1cn(C2CC2)c2cc(N3CCNCC3)c(F)cc2c1=O [CIPROFLOXACIN] | – | – | – | – | – | – | – | – | – | – | – | IC50 [5]: 0.25 µg/mL (≈ 0.754 µM)
O=CC1=C[C@]23CC/C=C\CCCCN4CC[C@@H]1[C@]1(C[C@@H]5/C=C\CCC[C@@H](O2)N5[C@H]13)C4 | – | – | – | inactive | – | inactive | – | – | – | – | – | –
Oc1cccc2c1[nH]c1c([C@H]3[C@@H]4CCN5CCCC/C=C\CC[C@@]6(O[C@@H]36)[C@@H]3NCCCC/C=C\CC[C@@]34C5)nccc12 | – | – | – | inactive | – | inactive | – | – | – | – | – | –
Cc1cn([C@H]2C[C@H](N=[N+]=[N-])[C@@H](CO)O2)c(=O)[nH]c1=O [ZIDOVUDINE] | – | – | – | – | – | – | – | – | – | – | – | IC50 [11]: 0.004 µg/mL (≈ 0.015 µM)
